One data set deals with Bacillus subtilis DSM 10. The experiment in a line: Antimicrobial serial dilution assay (MIC). It counts as cell-based. The settings on record: Bacillus subtilis DSM 10, n.i.: no inhibition. Here is the method: (§1) The antimicrobial activity (minimum inhibitory concentration, MIC) of the compounds was determined against Acinetobacter baumannii DSM 30008, Bacillus subtilis DSM 10, Chromobacterium violaceum DSM 30191, Escherichia coli DSM 1116, Mycobacterium smegmatis ATCC 700084, Pseudomonas aeruginosa PA14, Staphylococcus aureus DSM 346, Candida albicans DSM1665, Mucor hiemalis DSM 2656, Pichia anomala DSM 6766, Rhodotorula glutinis DSM 10134 and Schizosaccharomyces pombe DSM 70572 in a serial dilution assay as previously described.

Data set [1] relates to Chromobacterium violaceum DSM 30191. The experiment in a line: Antimicrobial serial dilution assay (MIC). The class given is cell-based. The method, then:
as §1

A further data set is described as follows: MTT cytotoxicity assay. To be noted: read-out: Cytotoxic activity (IC50). The class given is cell-based. Here is the method: The in vitro cytotoxicity assay was performed using the MTT (3-(4,5-dimethylthiayol-2-yl)-2,5-diphenyltetrazolium bromide) test in 96-well microtiter plates as previously described.
Another data set concerns Mucor hiemalis DSM 2656. Put plainly: Antimicrobial serial dilution assay (MIC). The class given is cell-based. The settings on record: Mucor hiemalis DSM 2656; n.i.: no inhibition. The method, then: as §1
Data set [2] deals with Pseudomonas aeruginosa PA14. The experiment in a line: Antimicrobial serial dilution assay (MIC). To be noted: n.i.: no inhibition. The class given is cell-based. The method, then:
as §1

For data set [3], the system named is Acinetobacter baumannii DSM 30008. The experiment in a line: Antimicrobial serial dilution assay (MIC). It counts as cell-based. Here is the method: as §1
Data set [4] has as its system Schizosaccharomyces pombe DSM 70572. Put plainly: Antimicrobial serial dilution assay (MIC). The class given is cell-based. To be noted: Schizosaccharomyces pombe DSM 70572; n.i.: no inhibition. The method, then: as §1
For data set [5], the system named is Mycobacterium smegmatis ATCC 700084. Put plainly: Antimicrobial serial dilution assay (MIC). It counts as cell-based. To be noted: Mycobacterium smegmatis ATCC 700084; n.i.: no inhibition. The method, then: as §1
Data set [6] concerns Staphylococcus aureus DSM 346. Put plainly: Antimicrobial serial dilution assay (MIC). It counts as cell-based. To be noted: Staphylococcus aureus DSM 346; n.i.: no inhibition. Here is the method:
as §1

The subject of data set [7] is Rhodotorula glutinis DSM 10134. Put plainly: Antimicrobial serial dilution assay (MIC). The class given is cell-based. The settings on record: Rhodotorula glutinis DSM 10134; n.i.: no inhibition. The method, then: as §1
The next data set concerns Pichia anomala DSM 6766. Put plainly: Antimicrobial serial dilution assay (MIC). It counts as cell-based. The settings on record: Pichia anomala DSM 6766; n.i.: no inhibition. The method, then: as §1
The subject of another data set is Candida albicans DSM1665. Put plainly: Antimicrobial serial dilution assay (MIC). The settings on record: n.i.: no inhibition. It counts as cell-based. Here is the method:
as §1

For data set [8], the system named is Escherichia coli DSM 1116. Put plainly: Antimicrobial serial dilution assay (MIC). The class given is cell-based. The settings on record: n.i.: no inhibition. The method, then:
as §1

Data set [9] has as its system H. fraxineus (isolate RH02-T6-B4-2). Put plainly: Agar disc diffusion assay. It counts as cell-based, Hymenoscyphus fraxineus. To be noted: 6 mm disc, 7 days, 21 °C. Here is the method:
The antifungal activity of the isolated compounds against H. fraxineus was assessed by the disc diffusion method using 9 cm diameter petri dishes as previously described […] Three sterile filter paper discs per plate were gently placed on dried potato–dextrose agar. The fungicide nystatin was applied as the positive control (20 and 50 µg/paper disc) and methanol as the negative control (10 µL/paper disc). The test plates were incubated at 21 °C for 7 days, the inhibition diameters were measured, and the activity was evaluated compared to nystatin.
Figure S44: Agar disc (6 mm diam.) diffusion assay of compound CJ-17,572 (1) against H. fraxineus RH02-T6-B4-2, grown in 9-cm petri dishes on agar-based PD
medium with H. fraxineus, N - positive control nystatin, M - negative control methanol, CJ – 1.
Table S1. Antifungal activity of the compounds 1-6. n.i.: no inhibition, n.t.: not tested.
Compounds Amount ( µg/paper disc)
Peziculastatin n.t. n.i. 8 mm
Mycorrhizin A 19 mm 31 mm n.t.
Cryptosporioptide A n.t. n.i. n.i.
Cryptosporioptide B n.t. n.i. 8 mm
Cryptosporioptide C n.t. n.i. n.i.
Nystatin 21 mm 24 mm n.t.
On the technique in general: In agar diffusion tests the substance spreads into inoculated agar from a disc or well.

The test system of data set [10] is Candida albicans DSM 11225 biofilm. The experiment in a line: Biofilm assay, inhibition of biofilm formation. It counts as cell-based. Set-up: unit not given here. To be noted: (/) no activity. The method, then: The stock of fungal pathogen Candida albicans DSM 11225 from −20 °C was cultured in 25 mL YPD (Yeast extract Peptone Dextrose; dextrose 20 g/L, peptone 20 g/L, yeast extract 10 g/L) medium in a 250 mL flask at 30 °C with shaking 100 rpm for 18 h. Turbidity of the broth was measured and diluted to match the turbidity of a 0.05 McFarland standard in RPMI 1640 medium (Gibco, New York, NY, USA, Thermo Fisher Scientific). Afterwards, 150 μL of the fungal dispersion was added into each well of a 96-well microtiter plate (Falcon no. 351172, Thermo Fisher Scientific) and further incubated for 90 min. The supernatant was removed, and the plate was washed once by using PBS buffer. Compounds were serially diluted in 150 μL in fresh medium to concentrations of 250–2 μg/mL. Staining and analysis were conducted as previously described. Methanol (2.5%) and farnesol (250–2 μg/mL) were used as solvent and positive controls. Error bars indicate SD with duplicates in two biological repeats.

Data set [11] has as its system Staphylococcus aureus DSM 1104 preformed biofilm. Put plainly: Biofilm assay, dispersal of preformed biofilm. The class given is cell-based. Set-up: Antibiofilm activity, preformed S. aureus: unit not given here. The settings on record: for Antibiofilm activity, preformed S. aureus: (/) no activity. Here is the method:
Staphylococcus aureus DSM 1104 from −20 °C stock was cultured in 25 mL CASO (Casein–Peptone Soymeal–Peptone; peptone from casein 15 g/L, peptone from soy flour 5 g/L, NaCl 5 g/L, pH 7.3) medium at 37 °C at 100 rpm in 250 mL for 20 h. The precultured suspension of S. aureus was adjusted so that its OD600 matched the turbidity of a 0.001 McFarland standard. S. aureus was incubated in 96-well tissue microtiter plates (TPP tissue culture ref.no 92196, Switzerland) for 24 h at 150 rpm in […] CASO medium with 4% glucose broth. The supernatant was removed from the wells and 150 μL of the respective media (fresh) was added to the wells, together with the serially diluted compounds (250–2 μg/mL). The plates were incubated for a further 24 h at 37 °C. Staining of the biofilms was carried out as described previously. Standard deviation (SD) of two repeats with duplicates each were 10% or less. Methanol (2.5%) and microporenic acid A (250–2 μg/mL) were used as solvent and positive controls. Error bars indicate SD with duplicates in two biological repeats.

The mark [12] stands for this setting: 50 µg/paper disc, n.i.: no inhibition.

Values after ≈ are worked out from the molar mass of the structure shown. Like-named read-outs stand apart in the source and are kept apart here. Marks after values point to notes of the source that are not given here.

For the compound `CN(C)[C@@H]1C(O)=C(C(N)=O)C(=O)[C@@]2(O)C(O)=C3C(=O)c4c(O)cccc4[C@@](C)(O)[C@H]3[C@H](O)[C@@H]12` [oxytetracycline, reference compound], the MIC in the data set with Bacillus subtilis DSM 10 (DSM10, read-out: Minimum inhibitory concentration (MIC)) is 16.6 µg/mL (≈ 36.1 µM); in data set [1] (DSM30191, n.i.: no inhibition, read-out: Minimum inhibitory concentration (MIC)) it was 0.83 µg/mL (≈ 1.8 µM).

In general, IC50 refers to the concentration that gives 50% inhibition. Take `C/C(=C\c1csc(C)n1)[C@@H]1C[C@@H]2O[C@]2(C)CCC[C@H](C)[C@H](O)[C@@H](C)C(=O)C(C)(C)[C@@H](O)CC(=O)O1` [epothilone B, reference compound]: the IC50 turned out to be 0.065 nM in “MTT cytotoxicity assay” (human, A431); 0.053 nM in “MTT cytotoxicity assay” (human, A549); 0.045 nM in “MTT cytotoxicity assay” (human, KB3.1, n.c.: no cytotoxicity); 0.083 nM in “MTT cytotoxicity assay” (human, MCF-7); 0.28 nM in “MTT cytotoxicity assay” (human, PC-3); 0.18 nM in “MTT cytotoxicity assay” (human, SKOV-3). In addition, the IC50 in “MTT cytotoxicity assay” (mouse, L929, n.c.: no cytotoxicity) is 0.43 nM.

In the case of `CCC(C(=O)O)C(=O)OC1C2(C)Oc3ccc(-c4ccc5c(c4O)C(=O)C4=C(O)C6OC6(C)C(OC(=O)CC(=O)O)C4(C)O5)c(O)c3C(=O)C2=C(O)C2OC21C` (stereo not drawn) [Compound 5, Cryptosporioptide B], the “Minimum inhibitory concentration (MIC)” value (in the data set with Mucor hiemalis DSM 2656; in the data set with Bacillus subtilis DSM 10; in data set [2]; in data set [3] (n.i.: no inhibition); in data set [4]; in [5]) was “n.i” each time. Moreover, the “Minimum inhibitory concentration (MIC)” value (in [6]; in data set [7]; with Pichia anomala DSM 6766; in the data set on Candida albicans DSM1665; in data set [8]; in data set [1] (n.i.: no inhibition)) was “n.i” in each case. In addition, the “Antifungal activity, inhibition diameter” value in data set [9] (setting [12]) was “n.i”; in data set [9] (100 µg/paper disc, n.i.: no inhibition), 8 mm. The figures for the “Antibiofilm activity, C. albicans” value in [10] (62.5 µg/mL), in [10] (125 µg/mL) and in data set [10] (250 µg/mL) were 49, 50 and 74, respectively. For the same compound, the “Antibiofilm activity, preformed S. aureus” value in [11] (7.8 µg/mL) was found to be 54; in [11] (15.6 µg/mL), 75; in data set [11] (62.5 µg/mL), 83; in data set [11] (125 µg/mL), 81; in data set [11] (250 µg/mL), 49. Further, in data set [11] (concentrations between 15.6 µg/mL–125 µg/mL), the “efficacy of biofilm eradication, preformed biofilms of S. aureus” value is recorded as 70–80%.

On to `NC[C@H]1O[C@H](O[C@H]2[C@H](O)[C@@H](O[C@H]3O[C@H](CO)[C@@H](O)[C@H](N)[C@H]3O)[C@H](N)C[C@@H]2N)[C@H](O)[C@@H](O)[C@@H]1O` [kanamycin, reference compound], for which the “Minimum inhibitory concentration (MIC)” value in data set [5] was 1.7 ^d µg/mL.

As for `C[C@@H]1[C@H](O)[C@@H](C)/C=C/C=C/CC/C=C/C=C/C=C/C=C/C(O[C@H]2O[C@H](C)[C@@H](O)[C@H](N)[C@@H]2O)CC2O[C@](O)(CC(O)C(O)CCC(O)CC(O)CC(O)CC(=O)O[C@H]1C)CC(O)C2C(=O)O` (stereo partly drawn) [nystatin, reference compound], the “Minimum inhibitory concentration (MIC)” value with Mucor hiemalis DSM 2656 is given as 16.6 ^e µg/mL; in data set [4] it was 16.6 ^e µg/mL; in data set [7], 8.3 ^e µg/mL; in the data set with Pichia anomala DSM 6766, 16.6 ^e µg/mL; in the data set on Candida albicans DSM1665, 16.6 ^e µg/mL. Moreover, the “Antifungal activity, inhibition diameter” value in data set [9] (20 µg/paper disc) amounted to 21 mm; in data set [9] (setting [12]), 24 mm.

As to gentamycin [reference compound], the “Minimum inhibitory concentration (MIC)” value in data set [2] is on record as 0.21 ^b µg/mL; in data set [6], 0.21 ^b µg/mL; in data set [8], 0.83 ^b µg/mL.

In the case of `O=C(O)c1cn(C2CC2)c2cc(N3CCNCC3)c(F)cc2c1=O` [ciprofloxacin, reference compound], the MIC in data set [3] (DSM30008, n.i.: no inhibition, read-out: Minimum inhibitory concentration (MIC)) was determined as 0.26 µg/mL (≈ 0.785 µM).

Consider `CC(C)=CCC/C(C)=C/CC/C(C)=C/CO` [Farnesol, farnesol, reference compound], for which the “Antibiofilm activity, C. albicans” value in [10] (15.6 µg/mL) was 55; in data set [10] (31.3 µg/mL) it was 66; in [10] (62.5 µg/mL), 71; in data set [10] (250 µg/mL), 81.
